Assay results from paper PMC11877520, “Anthelmintic Potential of Conjugated Long-Chain Fatty Acids Isolated from the Bioluminescent Mushroom Neonothopanus gardneri” (Journal of Natural Products, 2025).
“Also recorded” adds a separate entry of the source. Where two headings read alike, the source gives them in different places.

Assays:
[1] = tested on: Schistosoma mansoni; experiment: In vitro antischistosomal assay on adult schistosomes (parasite viability by microscope); type: cell-based, Schistosoma mansoni (BH strain); settings: for EC50: Schistosoma mansoni
Description: The in vitro antischistosomal potential of compounds 1–5 was evaluated at various concentrations on S. mansoni (male and female) to determine their effective concentrations at 50% (EC50). Praziquantel (PZQ) was employed as a positive control, while vehicle-treated parasites (0.5% DMSO) were a negative control. […] The S. mansoni (BH strain) life cycle was sustained by passage through Biomphalaria glabrata snails and Swiss mice at the Research Center on Neglected Diseases (Guarulhos University, SP, Brazil). Vero cells from the American Type Culture Collection (ATCC) were cultured in Dulbecco’s modified Eagle medium (DMEM) supplemented with 10% heat-inactivated fetal calf serum and 2 mM L-glutamine (Vitrocell, Campinas, SP, Brazil). C. elegans (strain N2) was maintained at 22 °C on nematode growth medium (NGM) agar seeded with Escherichia coli strain OP50, following standard protocols.[26] The in vitro antischistosomal assay followed established procedures.[27] Adult schistosomes from infected mice were exposed to test samples (0.78–50 μM) in RPMI 1640 medium supplemented with 5% heat-inactivated fetal calf serum, penicillin (100 U/mL), and streptomycin (100 μg/mL) in a 24-well culture plate. Test samples, including PZQ, were dissolved in DMSO and tested in triplicate with experiments repeated three times. A BEL Engineering microscope assessed parasite viability at 24, 48, and 72 h. Statistical analysis was conducted using GraphPad Prism 8.0. CE50 and CC50 values were determined from sigmoid dose–response curves. Selectivity indices were calculated by dividing CC50 values obtained on Vero cells by […].[30]

[2] = Cytotoxicity on Vero cells (MTT); type: cell-based; settings: chlorocebus sabaeus; Vero cells, 72 h, MTT, 6.25–200 μM tested; read-out: Vero cell CC50
Description: (§1) The S. mansoni (BH strain) life cycle was sustained by passage through Biomphalaria glabrata snails and Swiss mice at the Research Center on Neglected Diseases (Guarulhos University, SP, Brazil). Vero cells from the American Type Culture Collection (ATCC) were cultured in Dulbecco’s modified Eagle medium (DMEM) supplemented with 10% heat-inactivated fetal calf serum and 2 mM L-glutamine (Vitrocell, Campinas, SP, Brazil). C. elegans (strain N2) was maintained at 22 °C on nematode growth medium (NGM) agar seeded with Escherichia coli strain OP50, following standard protocols.[26]
(§2) Cytotoxicity was assessed using a previously established method.[20],[28] Cells were plated in 96-well plates and treated with test compounds (6.25–200 μM) and doxorubicin (DXR) at 10 μM as a positive control for 72 h. Cell viability was determined using an MTT solution, and absorbance was measured at 595 nm using a microplate spectrophotometer. The assay was performed in triplicate, and the results are expressed as a percentage of the control.
(§3) Statistical analysis was conducted using GraphPad Prism 8.0. CE50 and CC50 values were determined from sigmoid dose–response curves. Selectivity indices were calculated by dividing CC50 values obtained on Vero cells by CC50 values determined on S. mansoni.[30]

[3] = tested on: Vero cells; experiment: Cytotoxicity on Vero cells (MTT); type: cell-based; settings: for SI (male worms), selectivity index SI = CC50/EC50: Vero CC50 / S. mansoni male EC50
Description: as §1, §2, §3

[4] = tested on: Caenorhabditis elegans; experiment: Toxicity assay with C. elegans (viability by mobility and form); type: in vivo, Caenorhabditis elegans (strain N2); settings: L4-stage worms, 24 h, 25 to 200 μM
Description: as §1
Toxicity assays with C. elegans were performed as previously described.[29] For 24 h, 26 L4-stage worms were exposed to samples at concentrations ranging from 25 to 200 μM, including levamisole (LVZ) at 10 μM as the positive control. Viability was assessed based on mobility and form using an inverted microscope, with experiments repeated three times.

[5] = adult female worms, in vitro, 72 h, 0.78–50 μM tested, read-out: S. mansoni female EC50
[6] = adult male worms, in vitro, 72 h, 0.78–50 μM tested, read-out: S. mansoni male EC50
[7] = adult schistosomes, ex vivo / in vitro, read-out: EC50 against S. mansoni (sex not specified)

SMILES	EC50 [1, 5]	EC50 [1, 6]	EC50 [1, 7]	CC50 at 72 h [2]	SI (female worms), selectivity index SI = CC50/EC50 ([3]; Vero CC50 / S. mansoni female EC50)	SI (male worms), selectivity index SI = CC50/EC50 [3]	Toxicity to mammalian cells (in words) ([3]; Vero cells, 72 h)	Toxicity to C. elegans (in words) [4]	Antiparasitic activity against S. mansoni (in words) ([1]; adult schistosomes, in vitro, up to 50 μM)
CCCCCCCC/C=C\[C@@H](O)[C@H](O)CCCCCC(=O)O (stereo in doubt) [Compound 3, (7R,8R,9Z)-7,8-dihydroxyoctadec-9-enoic acid]	32.6 ± 5.1 µM	8.3 ± 2.4 µM	< 10 µM	> 200 µM	>6.13	>24.09	no toxicity	did not show toxicity; also recorded: no toxicity	–
CCCCC[C@H](O)[C@@H](O)/C=C/C=C/C(=O)CCCCCC(=O)O [Compound 1, (8E,10E,12S,13S)-12,13-dihydroxy-7-oxo-octadeca-8,10-dienoic acid]	> 50 µM	> 50 µM	> 50 µM	–	–	–	–	–	–
CCCCCC(=O)/C=C/C=C/[C@H](O)[C@@H](O)CCCCCC(=O)O [Compound 2, (7S,8S,9E,11E)-7,8-dihydroxy-13-oxo-octadeca-9,11-dienoic acid]	> 50 µM	> 50 µM	> 50 µM	–	–	–	–	–	–
O=C(O)/C=C/CCCCCCC(=O)O [Compound 4, (2E)-dec-2-ene-1,10-dioic acid]	> 50 µM	> 50 µM	> 50 µM	–	–	–	–	–	–
CC1(C)CCC(=O)[C@@]23C(=O)OC4OCC(=CC[C@@H]12)[C@H]43 (some centres unmarked) [Compound 5, marasmeno-1,15-dione]	> 50 µM	> 50 µM	> 50 µM	–	–	–	–	–	no antiparasitic activity was detected
O=C(C1CCCCC1)N1CC(=O)N2CCc3ccccc3C2C1 (centres unmarked) [PZQ, Praziquantel, reference compound]	1.2 ± 0.1 µM	0.9 ± 0.1 µM	< 2 µM	> 200 µM	–	>250	–	–	–
